Reference: ChEMBL document CHEMBL4002607, “Sulfamic and succinic acid derivatives of 25-OH-PPD and their activities to MCF-7, A-549, HCT-116, and BGC-823 cell lines” (Bioorg Med Chem Lett, 2017)

Tests used:
[1] = tested on: A549; experiment: Antiproliferative activity against human A549 cells after 48 hrs by MTT assay; format: functional, cell-based
[2] = tested on: MCF7; experiment: Antiproliferative activity against human MCF7 cells after 48 hrs by MTT assay; format: functional, cell-based; conditions: MCF7, 48 h
[3] = tested on: BGC-823; experiment: Antiproliferative activity against human BGC823 cells after 48 hrs by MTT assay; format: functional, cell-based; conditions: BGC-823, 48 h
[4] = tested on: HCT-116; experiment: Antiproliferative activity against human HCT116 cells after 48 hrs by MTT assay; format: functional, cell-based
[5] = Antiproliferative activity against human IOSE-144 cells after 48 hrs by MTT assay; format: cell-based; conditions: IOSE-144, 48 h
[6] = tested on: BGC-823; experiment: Antiproliferative activity against human BGC823 cells assessed as cell viability at 40 uM after 48 hrs by MTT assay relative to control; format: functional; conditions: BGC-823, 48 h, read-out: Activity
[7] = tested on: A549; experiment: Antiproliferative activity against human A549 cells assessed as cell viability at 20 uM after 48 hrs by MTT assay relative to control; format: functional; conditions: A549, 48 h, read-out: Activity
[8] = Homo sapiens, A549, 48 h, read-out: IC50
[9] = Homo sapiens, HCT-116, 48 h, read-out: IC50

| Structure (SMILES) | IC50 [1, 8] | IC50 [2] | IC50 [3] | IC50 [4, 9] | IC50 [5] | viability at 40 µM [6] | IC50 ([4]; hct-116) | viability at 20 µM [7] | IC50 ([1]; a549) |
| --- | --- | --- | --- | --- | --- | --- | --- | --- | --- |
| C=C(CCCC(C)(C)O)[C@H]1CC[C@]2(C)[C@@H]1[C@H](OS(N)(=O)=O)C[C@@H]1[C@@]3(C)CC[C@H](O)C(C)(C)[C@@H]3CC[C@]12C | 20.9 µM | 33.8 µM | > 100 µM | > 100 µM | > 100 µM | – | – | – | – |
| CC(C)(O)CCC[C@@](C)(O)[C@H]1CC[C@]2(C)[C@@H]1[C@H](OC(=O)CCC(=O)O)C[C@@H]1[C@@]3(C)CC[C@H](OC(=O)CCC(=O)O)C(C)(C)[C@@H]3CC[C@]12C | > 100 µM | 40.3 µM | > 100 µM | > 100 µM | > 100 µM | – | – | – | – |
| CC(C)=CCC[C@@](C)(O)[C@H]1CC[C@]2(C)[C@@H]1[C@H](OS(N)(=O)=O)C[C@@H]1[C@@]3(C)CC[C@H](O)C(C)(C)[C@@H]3CC[C@]12C | 23.8 µM | 18.2 µM | 25.5 µM | 57.9 µM | > 100 µM | 19.9% | – | – | – |
| C=C(CCCC(C)(C)OS(N)(=O)=O)[C@H]1CC[C@]2(C)[C@@H]1[C@H](O)C[C@@H]1[C@@]3(C)CC[C@H](O)C(C)(C)[C@@H]3CC[C@]12C | 13.7 µM | 20.8 µM | 32 µM | – | > 100 µM | 39.9% | Not Active | – | – |
| CC(C)=CCC[C@@](C)(O)[C@H]1CC[C@]2(C)[C@@H]1[C@H](O)C[C@@H]1[C@@]3(C)CC[C@H](OS(N)(=O)=O)C(C)(C)[C@@H]3CC[C@]12C | 9.9 µM | 14.5 µM | 22.1 µM | 26.8 µM | > 100 µM | 17.1% | – | – | – |
| CC(C)(O)CCC[C@@](C)(O)[C@H]1CC[C@]2(C)[C@@H]1[C@H](O)C[C@@H]1[C@@]3(C)CC[C@H](OS(N)(=O)=O)C(C)(C)[C@@H]3CC[C@]12C | 0.2 µM | 14.6 µM | 14 µM | – | > 100 µM | 40% | Not Active | 6% | – |
| C=C(CCCC(C)(C)O)[C@H]1CC[C@]2(C)[C@@H]1[C@H](O)C[C@@H]1[C@@]3(C)CC[C@H](OS(N)(=O)=O)C(C)(C)[C@@H]3CC[C@]12C | 0.8 µM | 11.9 µM | 21.6 µM | 42.4 µM | > 100 µM | 24.7% | – | 9% | – |
| C=C(CCCC(C)(C)O)[C@H]1CC[C@]2(C)[C@@H]1[C@H](O)C[C@@H]1[C@@]3(C)CC[C@H](O)C(C)(C)[C@@H]3CC[C@]12C | 29.2 µM | 32.9 µM | 34.6 µM | > 100 µM | > 100 µM | – | – | – | – |
| O=c1[nH]cc(F)c(=O)[nH]1 [FLUOROURACIL] | 10.5 µM | 19.2 µM | 34.8 µM | 29.2 µM | – | – | – | – | – |
| CC(C)(O)CCC[C@@](C)(O)[C@H]1CC[C@]2(C)[C@@H]1[C@H](OC(=O)CCC(=O)O)C[C@@H]1[C@@]3(C)CC[C@H](O)C(C)(C)[C@@H]3CC[C@]12C | > 100 µM | 77.1 µM | > 100 µM | 75.3 µM | > 100 µM | – | – | – | – |
| C=C(CCCC(C)(C)O)[C@H]1CC[C@]2(C)[C@@H]1[C@H](OS(N)(=O)=O)C[C@@H]1[C@@]3(C)CC[C@H](OS(N)(=O)=O)C(C)(C)[C@@H]3CC[C@]12C | 24.1 µM | 30.3 µM | 37.7 µM | > 100 µM | > 100 µM | – | – | – | – |
| CC(C)(O)CCC[C@@](C)(OS(N)(=O)=O)[C@H]1CC[C@]2(C)[C@@H]1[C@H](O)C[C@@H]1[C@@]3(C)CC[C@H](OS(N)(=O)=O)C(C)(C)[C@@H]3CC[C@]12C | 8.8 µM | 12.4 µM | 14.9 µM | 41.5 µM | > 100 µM | 14.5% | – | – | – |
| C=C(CCC=C(C)C)[C@H]1CC[C@]2(C)[C@@H]1[C@H](OS(N)(=O)=O)C[C@@H]1[C@@]3(C)CC[C@H](O)C(C)(C)[C@@H]3CC[C@]12C | – | 13.5 µM | 25.9 µM | – | > 100 µM | 21.2% | Not Active | – | Not Active |
| CC(C)(O)CCC[C@@](C)(O)[C@H]1CC[C@]2(C)[C@@H]1[C@H](O)C[C@@H]1[C@@]3(C)CC[C@H](O)C(C)(C)[C@@H]3CC[C@]12C | 5.9 µM | 7.5 µM | 33.2 µM | 21.5 µM | > 100 µM | 40.1% | – | 36.5% | – |
